From article PMC4473678, “Swedish mutant APP-based BACE1 binding site peptide reduces APP β-cleavage and cerebral Aβ levels in Alzheimer’s mice” (Scientific Reports, 2015) come the findings set out here.

For data set [1], the system named is 5XFAD mice. Nature of the data set: Cerebral Aβ ELISA, 5XFAD mice. It is filed as in vivo, mouse. The conditions noted are these: 100 nmol/kg i.p. daily, 8 weeks, versus TAT or PBS, *P < 0.05, **P < 0.01, ***P < 0.005, listed as TAT-APPsweBBP. As to the method: Transgenic AD mice [5XFAD; B6SJL-Tg(APPSwFlLon,PSEN1*M146L*L286V) 6799Vas/Mmjax] at 2.5 months of age were obtained from the Jackson Laboratory (Bar Harbor, ME) and housed and maintained in the Animal Facility of College of Medicine at University of South Florida (USF). The mice at 3.5 months of age were treated with TAT-APPsweBBP, TAT peptide (100 nmol/kg in 100 μL PBS) or PBS (100 μL) daily by intraperitioneal injection (i.p.) for eight consecutive weeks. The mice were subjected to behavioral testing after 8-week treatment and then euthanized for immunohistochemical, WB and ELISA analyses. Animals were housed and maintained at USF and all experiments were in compliance with protocols approved by USF Institutional Animal Care and Use Committee. […]
Mouse brains were homogenized in ice-cold lysis buffer for 30 s using a Minilys tissue homogenizer (Bertin Technologies, Montigny-le-Bretonneux, France) set at high speed, allowed to stand for 15 min at 4 °C, and centrifuged at 15000 rpm for 30 min. Soluble Aβ1−40/42 species and sAPPα were directly detected in cultured cell media or brain homogenates using the Aβ1−40/42 (Invitrogen) and sAPPα ELISA kits (IBL-America, Minneapolis, MN). Detergent-insoluble total […] species were detected in brain by extracting pellets in 5 M guanidine HCl buffer, followed by a 1:20 dilution in lysis buffer.

Data set [2] deals with cortex and hippocampus of 5XFAD mice. The experiment in a line: Extracellular and intracellular peptide levels in brain (WB). The conditions noted are these: i.p., *P < 0.05, **P < 0.01, listed as TAT-APPsweBBP. It is filed as in vivo, mouse. As for the experimental part: For specific extraction of extracellular versus intracellular proteins, hemibrains were harvested and placed in 500 μl of solution containing 50 mM Tris-HCl, pH 7.6, 0.01% NP-40, 150 mM NaCl, 2 mM EDTA, 0.1% SDS, 1 mM phenylmethylsulfonyl fluoride, and protease inhibitor cocktail (Sigma) as previously describe. Soluble, extracellular proteins were collected from mechanically homogenized lysates after centrifugation for 5 min at 3000 rpm. Cytoplasmic proteins were extracted from cell pellets mechanically dissociated with a micropipettor in 500 μl of TNT buffer (50 mM Tris-HCl, pH 7.6, 150 mM NaCl, and 0.1% Triton X-100) after centrifugation for 90 min at 13,000 rpm. Insoluble material was incubated with 20 μl of 70% formic acid, mechanically dissociated with a micropipette, gently agitated for 1 h, and buffered with 380 μl of 1 M Tris-HCl, pH 8.0. Samples were centrifuged for 90 min at 13,000 rpm, and supernatants were collected for analysis.
WB analysis was performed as previously described. Briefly, the proteins from the various cell-free suspensions, cell lysates and brain homogenates were electrophoretically separated using 10% bicine/tris gel (8 M urea) for proteins less than 5 kD or 10% tricine/tris gels for larger proteins. […]

Data set [3] has as its system 5XFAD mice. The experiment in a line: β-amyloid immunohistochemistry (4G8), 5XFAD mice. It is filed as in vivo, mouse. The conditions noted are these: 100 nmol/kg i.p. daily, 8 weeks, RSC, EC and H regions, n = 10, 5 female/5 male, listed as TAT-APPsweBBP. As to the method: (§1) Transgenic AD mice [5XFAD; B6SJL-Tg(APPSwFlLon,PSEN1*M146L*L286V) 6799Vas/Mmjax] at 2.5 months of age were obtained from the Jackson Laboratory (Bar Harbor, ME) and housed and maintained in the Animal Facility of College of Medicine at University of South Florida (USF). The mice at 3.5 months of age were treated with TAT-APPsweBBP, TAT peptide (100 nmol/kg in 100 μL PBS) or PBS (100 μL) daily by intraperitioneal injection (i.p.) for eight consecutive weeks. The mice were subjected to behavioral testing after 8-week treatment and then euthanized for immunohistochemical, WB and ELISA analyses. Animals were housed and maintained at USF and all experiments were in compliance with protocols approved by USF Institutional Animal Care and Use Committee. All methods were performed in accordance with relevant guidelines and regulations.
For paraffin brain tissues, we sectioned five coronal sections per region with a 100-μm interval and a thickness of 5-μm for retrosplenial cortex (RSC), entorhinal cortex (EC), and hippocampus (H), located at bregma −2.92 to −3.64 mm. […] Images were acquired as digitized tagged-image format files (to retain maximum resolution) using a BX60 microscope with an attached CCD camera system (DP-70, Olympus, Tokyo, Japan), and digital images were routed into a Windows PC for quantitative analyses using SimplePCI software (Hamamatsu Photonics, Hamamatsu, Shizuoka, Japan). […]

In data set [4] the test system is recombinant BACE1 protein. The experiment in a line: WB of BACE1-mediated cleavage of biotin-labeled peptide, cell-free. It is filed as biochemical. The conditions noted are these: 10 μg biotin-labeled TAT-APPsweBBP with 10 μL recombinant BACE1 (1.0 U/mL), 4 h, 37 °C. As to the method: In order to confirm that APPsweBBP containing the β-cleavage site could bind to and be consequently proteolyzed by BACE1, 10 μg of biotin-labeled TAT-APPsweBBP was incubated with or without 10 μL of recombinant BACE1 protein (1.0 U/mL) in BACE1 reaction buffer for 4 h at 37 °C and then subjected to WB analysis as described previously. In addition, we performed immunoprecipitation (IP) and WB analyses of this mixture with anti-BACE1 and anti-biotin antibodies to confirm that TAT-APPsweBBP, but not TAT, specifically binds to BACE1.

Data set [5] relates to 5XFAD mice. The experiment in a line: Rotarod test, 5XFAD mice. It is filed as in vivo, mouse. To be noted: 100 nmol/kg i.p. daily, 8 weeks, n = 10 per treatment, listed as TAT-APPsweBBP. As for the experimental part:
as §1
The rotarod task was also performed to exclude the possibility that positive effects of any treatment in RAWM test are due to improvements in sensorimotor ability. Mice were positioned on the rod (diameter 3.6 cm) of the equipment (Rotarod 7650 accelerating model; Ugo Basile, Biological Research Apparatus, Varese, Italy), which was initially set at 1.0 rpm. The rod was then allowed to steadily accelerate up to 40.0 rpm over a 3-min session and evaluation was made by monitoring latency to fall.
On the technique in general: The rotarod test checks motor coordination on a turning rod.

“Also recorded” adds a separate entry of the source.

In the case of “YGRKKRRQRRREISEVNLDAEFR [APPsweBBP conjugated with the membrane fusion fragment of HIV-1 Tat protein]”, in the data set on 5XFAD mice [1], the “detergent-insoluble Aβ1−40/42 in brain” value was “statistically significant decreases; also recorded: significantly reduced” and the “detergent-soluble Aβ1−40/42 in brain” value is on record as “statistically significant decreases; also recorded: significantly reduced”. The “intracellular versus extracellular distribution in brain” value in data set [2] was “higher intracellular TAT-APPsweBBP distribution; also recorded: prefers to enter into cytoplasm of brain cells”. Also, in the data set with 5XFAD mice [3], the “β-amyloid plaques / 4G8 immunoreactive area” value is “greatly reduced; also recorded: markedly reduced β-amyloid plaques; also recorded: significant differences between TAT-APPsweBBP and TAT peptide treatment groups (**P < 0.01)”. Also, in data set [4], the “cleavage by BACE1” value was “is cleaved by BACE1; also recorded: can also be cleaved”. Besides, in the data set with 5XFAD mice [5], the “rotarod latency to fall / motor performance” value is reported as “no differences between treatment groups on each day; also recorded: tended to enhance motor activity in 5XFAD mice, as shown by increased latency to fall, but this did not reach a statistical level of significance”.
